Read-outs that look alike come from different tables or passages of the source.
Assays:
[1] = Equilibrium solubility in simulated intestinal fluid, dual level DoE, fasted arm; type: physicochemical; settings: for statistical significance of DoE factor BS:PL on equilibrium solubility / statistical significance of DoE factor bile salt on equilibrium solubility / statistical significance of DoE factor cholesterol on equilibrium solubility / statistical significance of DoE factor lecithin on equilibrium solubility / statistical significance of DoE factor monoglyceride on equilibrium solubility / statistical significance of DoE factor pH on equilibrium solubility / statistical significance of DoE factor sodium oleate on equilibrium solubility: fasted, current study (Figure 3); for direction of monoglyceride effect on solubility (standardized effect): fasted arm, Figure 3
Text: (§1) For each media parameter (bile salt, lecithin, sodium oleate, monoglyceride, cholesterol, pH and BS: PL ratio) lower and upper limit concentration values for fasted and fed states were defined, Table 1. Using Minitab 17.2.1 and a custom experimental design, a 1/16 of the full factorial DoE with the seven factors and two levels (lower and upper limits) was constructed (8 experiments around the upper and lower levels plus two center points) separately for the fasted and the fed states. These two tables were then applied as an input for a factorial custom design of experiment which combined the fasted and fed using all 20 data points to provide an overall analysis. The study therefore consists of three arms, two smaller (10 data point) fasted and fed arms, which are then merged into a larger (20 data point) combined arm.
(§2) When designing and analyzing the DoE, only a factor’s main effects and 2 way interactions have been considered and 3 way interactions or more were not included. For each DoE the magnitude for each factor’s effect on equilibrium solubility was determined by the standardized effect value for all of the individual factors and the significant 2-way interactions. This value was used to articulate whether these factors are increasing or decreasing drug solubility.
(§3) The solution was prepared by the addition of an excess amount (above the estimated solubility) of solid for each compound investigated to a centrifuge tube (15 mL Corning Centristar cap, polypropylene RNase/DNase free, nonpyrogenic) followed by the addition of each component of the simulated intestinal fluid media according to the run order generated by the DoE. After all of the media components were added, pH was adjusted to 5, 6, or 7 according to the run order using 0.1 M HCl or 0.1 M KOH and tubes were capped and placed on an orbital shaker (OS 5 basic Yellowline, IKA, Germany) for 1 h after which the pH was readjusted if required. The 20 different tubes were then shaken in a tube rotator for 24 h at 40 rpm at 37 °C to simulate intestinal fluid conditions. After 24 h, a 1 mL amount was taken from each of the 20 tubes and transferred to a 1.5 mL Eppendorf tube then centrifuged at 15 000 rpm for 5 min. Following centrifugation 0.5 mL of the supernatant solution was transferred to an HPLC vial to analyze drug solubility using HPLC (Table 4).

[2] = Statistical comparison of equilibrium solubility data sets (Mann-Whitney test / two-sample t-test); type: physicochemical; settings: for statistical comparison of fasted against fed equilibrium solubility: current dual level DoE, where significant, fasted solubility lower than fed; for statistical comparison of dual level fasted with published fasted equilibrium solubility: current fasted arm vs published fasted DoE
Text: The Kolmogorov normality test was used in Minitab to assess the normality distribution of each data set. A Mann–Whitney test was used to evaluate the median between two data sets (not normally distributed) and the two-sample t-test was used to evaluate the mean of two data sets (normally distributed).

[3] = design: method as in ref 13, Figure 2; settings: fasted, published; Figure 2; cited from earlier work
[4] = design: method as in ref 14, Figure 2; settings: fed, published; Figure 2; cited from earlier work
[5] = Equilibrium solubility in simulated intestinal fluid, dual level DoE, combined fasted and fed arm; type: physicochemical; settings: for significant two way factor interactions on solubility: eight two way interactions, Figure 4
Text: as §1, §2, §3

[6] = Equilibrium solubility in simulated intestinal fluid, dual level DoE, fed arm; type: physicochemical; settings: for statistical significance of DoE factor BS:PL on equilibrium solubility / statistical significance of DoE factor bile salt on equilibrium solubility / statistical significance of DoE factor cholesterol on equilibrium solubility / statistical significance of DoE factor lecithin on equilibrium solubility / statistical significance of DoE factor monoglyceride on equilibrium solubility / statistical significance of DoE factor pH on equilibrium solubility / statistical significance of DoE factor sodium oleate on equilibrium solubility: fed, current study (Figure 3)
Text: as §1, §2, §3

[7] = combined arm, Figure 4, significance ±2

Structure (SMILES) | statistical significance of DoE factor BS:PL on equilibrium solubility [1] | statistical significance of DoE factor bile salt on equilibrium solubility [1] | statistical significance of DoE factor cholesterol on equilibrium solubility [1] | statistical significance of DoE factor lecithin on equilibrium solubility [1] | statistical significance of DoE factor monoglyceride on equilibrium solubility [1] | statistical significance of DoE factor pH on equilibrium solubility [1] | statistical significance of DoE factor sodium oleate on equilibrium solubility [1] | statistical comparison of fasted against fed equilibrium solubility [2] | statistical significance of DoE factor bile salt on equilibrium solubility [3] | statistical significance of DoE factor lecithin on equilibrium solubility [3] | statistical significance of DoE factor pH on equilibrium solubility [3] | statistical significance of DoE factor sodium oleate on equilibrium solubility [3] | statistical significance of DoE factor bile salt on equilibrium solubility [4] | statistical significance of DoE factor lecithin on equilibrium solubility [4] | statistical significance of DoE factor monoglyceride on equilibrium solubility [4] | statistical significance of DoE factor pH on equilibrium solubility [4] | statistical significance of DoE factor BS:PL on equilibrium solubility [6] | statistical significance of DoE factor bile salt on equilibrium solubility [6] | statistical significance of DoE factor cholesterol on equilibrium solubility [6] | statistical significance of DoE factor lecithin on equilibrium solubility [6] | also measured
CC(C)(Sc1cc(C(C)(C)C)c(O)c(C(C)(C)C)c1)Sc1cc(C(C)(C)C)c(O)c(C(C)(C)C)c1 [probucol] | S ^d | NS ^e | NS ^e | NS ^e | NS ^e | NS ^e ^g | S ^d | no statistically significant difference | NS ^e | NS ^e | S ^d ^g | S ^d | S ^d ^g | S ^d ^g | S ^d ^g | S ^d ^g | NS ^e | NS ^e ^g | NS ^e | NS ^e ^g | statistical comparison of dual level fasted with published fasted equilibrium solubility [2]: significantly different; variability of equilibrium solubility ([5]; across DoE media, fasted or fed arm, Figures 1 and 2): large variability; significant two way factor interactions on solubility ([5]; combined arm): significant interactions; statistical significance of DoE factor monoglyceride on equilibrium solubility [6]: NS ^e ^g; statistical significance of DoE factor pH on equilibrium solubility [6]: NS ^e ^g; statistical significance of DoE factor sodium oleate on equilibrium solubility [6]: S ^d ^g
C[C@@H](O[C@H]1OCCN(Cc2n[nH]c(=O)[nH]2)[C@H]1c1ccc(F)cc1)c1cc(C(F)(F)F)cc(C(F)(F)F)c1 [aprepitant] | NS ^e | NS ^e ^g | NS ^e | S ^d ^g | S ^d | NS ^e ^g | S ^d | no statistically significant difference | S ^d ^g | NS ^e ^g | S ^d ^g | S ^d | S ^d ^g | S ^d ^g | NS ^e | S ^d ^g | NS ^e | NS ^e ^g | NS ^e | NS ^e ^g | direction of monoglyceride effect on solubility (standardized effect) [1]: positively impacts; statistical comparison of dual level fasted with published fasted equilibrium solubility [2]: significantly different; statistical comparison of dual level fed with published fed equilibrium solubility ([2]; current fed arm vs published fed DoE): significantly different; statistical significance of DoE factor sodium oleate on equilibrium solubility [4]: S ^d ^g; significance of lecithin for solubility [5, 7]: significant; significance of sodium oleate for solubility ([5]; combined arm, Figure 4, significance ±2, positive solubility impact): significant; statistical significance of DoE factor monoglyceride on equilibrium solubility [6]: NS ^e; statistical significance of DoE factor pH on equilibrium solubility [6]: NS ^e ^g; statistical significance of DoE factor sodium oleate on equilibrium solubility [6]: NS ^e ^g
COc1ccc2c(c1)c(CC(=O)O)c(C)n2C(=O)c1ccc(Cl)cc1 [indomethacin] | NS ^e | NS ^e ^g | NS ^e | NS ^e | NS ^e | S ^d | NS ^e ^g | no statistically significant difference | S ^d ^g | NS ^e | S ^d | S ^d ^g | S ^d ^g | NS ^e | NS ^e | S ^d | NS ^e | NS ^e ^g | NS ^e | NS ^e | statistical significance of DoE factor sodium oleate on equilibrium solubility [4]: S ^d ^g; significance of pH for solubility [5, 7]: significant; significant two way factor interactions on solubility ([5]; combined arm): no significant interactions; statistical significance of DoE factor monoglyceride on equilibrium solubility [6]: NS ^e; statistical significance of DoE factor pH on equilibrium solubility [6]: S ^d; statistical significance of DoE factor sodium oleate on equilibrium solubility [6]: NS ^e ^g
CCOC(=O)C1=C(C)NC(C)=C(C(=O)OC)C1c1cccc(Cl)c1Cl (stereo not drawn) [felodipine] | NS ^e | NS ^e ^g | NS ^e | S ^d | S ^d | S ^d | S ^d | significant difference | S ^d ^g | S ^d | S ^d | S ^d | S ^d | S ^d | NS ^e ^g | S ^d ^g | NS ^e | S ^d | NS ^e | S ^d | significant DoE factors influencing solubility ([1]; fasted and fed study arms together (14 possible values per drug), significance ±4): eight out of a possible 14; direction of monoglyceride effect on solubility (standardized effect) [1]: positive effect; statistical comparison of dual level fasted with published fasted equilibrium solubility [2]: significantly different; statistical significance of DoE factor sodium oleate on equilibrium solubility [4]: S ^d; significance of bile salt for solubility [5, 7]: significant; significance of cholesterol for solubility [5, 7]: significant; direction of monoglyceride effect on solubility (standardized effect) ([6]; fed arm, Figure 3): positive effect; statistical significance of DoE factor monoglyceride on equilibrium solubility [6]: S ^d ^g; statistical significance of DoE factor pH on equilibrium solubility [6]: NS ^e ^g; statistical significance of DoE factor sodium oleate on equilibrium solubility [6]: S ^d

From publication PMC5735376, “Dual Level Statistical Investigation of Equilibrium Solubility in Simulated Fasted and Fed Intestinal Fluid” (Molecular Pharmaceutics, 2017)
